Data: patent publication US10463764B2, “3D tissue-engineered bone marrow for personalized therapy and drug development” (Washington University, priority 2014, dated 2019)

What was measured:
MM1s cells [1] = assay: Drug survival of MM1s cells in mono- or multi-culture in classic 2D cultures and 3DTEBM, by flow cytometry; format: cell-based; conditions: Homo sapiens, MM1.S, 24 h
Experimental: MM1s-GFP cells (30×10^3 cells/well) were cultured in mono-culture or multi-culture conditions [CD138^− stromal cells-DiD (10×10^3 cells/well), HUVECs-DiD (10×10^3 cells/well), and fibronectin 100 ng/ml)] in 3DTEBM and classic 2D cultures. After 2 h gelification of 3DTEBM or adhesion in 2D cultures (cells were culture in 50 μl), 50 ul of RPMI completed media was added on top of 3DTEBM. Then, 50 μl of bortezomib (0-30 nM), carfilzomib (0, 10 nM), or melphalan (0, 1 μM) solutions were added on top of 2D cultures and 3DTEBM for 24 h. Cell proliferation assay was assessed by flow cytometry as previously described. Briefly, drug-media was removed, 3DTEBM were digested and cells of 2D cultures detached by pipetting. Effect of drug treatment in MM1s-GFP cells was measured and normalized to non-treated conditions.
Finally, the effect of increasing concentrations of bortezomib on the survival of MM1s cells grown in mono-culture or multi-culture in 3DTEBM and 2D cultures was measured.

MM1s cells [2] = assay: Effect of ECM component fibronectin on growth of MM cells inside 3DTEBM, by flow cytometry; format: cell-based; conditions: 100 ng/ml, day 3
Experimental: For flow cytometry analysis, an internal control (MM1s-calcein violet) was added and a minimum of 5,000 events were acquired using BD FACS Aria (BD Biosciences) and DiVa v6.1.2 software. The data was analyzed using FlowJo program v10 (Ashland, Oreg.). MM cells or CD138^+ cells were identified by gating cells with a high GFP/DiO signal (excitement, 488 nm; filter, 530/30 nm); Hs5 stroma or CD138-stromal cells were identified by gating cells with a high DiD signal (excitement, 638 nm; filter, 660/20 nm); HUVECs were identified by gating cells with a high DiI signal (excitement, 488 nm; filter, 585/15 nm); and MM1s cells control were identified by gating cells with a high UV signal (excitement, 355 nm; filter, 450/50 nm). A 3DTEBM was digested with type I collagenase at 25 mg/ml for 2 h at 37° C. Classic bi-dimensional (2D) cultures were washed with PBS and removed by pipetting. The effect of cell density (5×10^3-50×10^3 cells/well) of MM1s-GFP, Hs5 stroma-DiD, CD138− stromal cells-DiD, and HUVECs-DiI on growth rate in mono-cultures at day 3 inside 3DTEBM was measured by flow cytometry. […]

| Molecule | IC50 (MM1s cells [1]; 3DTEBM mono-culture) [nM] | IC50 (MM1s cells [1]; 3DTEBM multi-culture (CD138- stromal cells, HUVECs, fibronectin)) [nM] | IC50 (MM1s cells [1]; classic 2D mono-culture) [nM] | IC50 (MM1s cells [1]; classic 2D multi-culture (CD138- stromal cells, HUVECs, fibronectin)) [nM] | increase of growth of MM cells in 3DTEBM (MM1s cells [2]) |
| --- | --- | --- | --- | --- | --- |
| CC(C)C[C@H](NC(=O)[C@H](Cc1ccccc1)NC(=O)c1cnccn1)B(O)O [bortezomib] | 15 to 20 | ~25 | ~5 | ~7 | – |
| fibronectin | – | – | – | – | about 25% |
